≈ marks a conversion by molar mass, not a printed value. Read-outs that look alike come from different tables or passages of the source.
Tested on: A. baumannii
Assay: MIC, broth microdilution in CAMHB supplemented with human serum, read at 100% growth inhibition
Format: cell-based, Acinetobacter baumannii
Conditions: Acinetobacter baumannii, 20% HS, read-out: MIC
Method: MIC determinations were performed using the broth microdilution method and in line with CLSI guidelines M07 and M100 (refs. [37],[38]). Bacterial inocula were prepared by diluting a 0.5 McFarland suspension in CAMHB or lysogeny broth (LB) specifically for A. baylyi isolates. […] MIC values of all of the tested antibiotics were read as the lowest compound concentration inhibiting bacterial growth by naked eye or beyond which the OD600 ceased to decrease.

CN1C(=O)[C@H](CCCCN)NC(=O)[C@H](CCCN)NCc2cccnc2Sc2cccc(-c3ccc(C(=O)O)cc3)c2CNC(=O)[C@@H]1Cc1c[nH]c2ccccc12 [zosurabalpin]
MIC (ROB08998 (AdeR A91V)): 8 µg/mL (≈ 10.1 µM) | MIC (ROB09000 (lpxM ISAba1)): 8 µg/mL (≈ 10.1 µM) | MIC (ROB21530 (LptF W271S)): 16 µg/mL (≈ 20.2 µM) | MIC (ROB21531 (LptG G40D)): 8 µg/mL (≈ 10.1 µM) | MIC (ROB21532 (LptF R322C)): 64 µg/mL (≈ 80.9 µM) | MIC (ROB21533 (LptF I317L)): 64 µg/mL (≈ 80.9 µM) | MIC (ROB23370 (adeS ISAba1)): 4 µg/mL (≈ 5.06 µM) | MIC (ROB23371 (AdeS R152K)): 4 µg/mL (≈ 5.06 µM) | MIC (ROB23373 (AdeS G318S)): 2 µg/mL (≈ 2.53 µM) | MIC (ROB23377 (AdeS R108S)): 1 µg/mL (≈ 1.26 µM) | MIC (ROB23380 (adeS ISAba1)): 8 µg/mL (≈ 10.1 µM) | MIC (isolate 1061067): 0.25 µg/mL (≈ 0.316 µM) | MIC (isolate 1061145): 0.125 µg/mL (≈ 0.158 µM) | MIC (isolate 1065279): 0.25 µg/mL (≈ 0.316 µM) | MIC (isolate 1065391): 0.25 µg/mL (≈ 0.316 µM) | MIC (isolate 1065549): 0.06 µg/mL (≈ 0.0759 µM) | MIC (isolate 1069554): 0.06 µg/mL (≈ 0.0759 µM) | MIC (isolate 1072184): 0.25 µg/mL (≈ 0.316 µM) | MIC (isolate 1089062): 0.125 µg/mL (≈ 0.158 µM) | MIC (isolate 1089975): 0.125 µg/mL (≈ 0.158 µM) | MIC (isolate 1093170): 0.25 µg/mL (≈ 0.316 µM) | MIC (isolate 1098735): 1 µg/mL (≈ 1.26 µM) | MIC (isolate 1104059): 1 µg/mL (≈ 1.26 µM) | MIC (isolate 1104061): 0.25 µg/mL (≈ 0.316 µM) | MIC (isolate 1104062): 0.25 µg/mL (≈ 0.316 µM) | MIC (isolate 1115481): 0.06 µg/mL (≈ 0.0759 µM) | MIC (isolate 1115495): 0.5 µg/mL (≈ 0.632 µM) | MIC (isolate 1115510): 0.5 µg/mL (≈ 0.632 µM) | MIC (isolate 1115514): 0.25 µg/mL (≈ 0.316 µM) | MIC (isolate 1126813): 0.25 µg/mL (≈ 0.316 µM) | MIC (isolate 1140100): 0.06 µg/mL (≈ 0.0759 µM) | MIC (isolate 1154091): 1 µg/mL (≈ 1.26 µM) | MIC (isolate 1161864): 0.016 µg/mL (≈ 0.0202 µM) | MIC (isolate 1171976): 0.06 µg/mL (≈ 0.0759 µM) | MIC (isolate 1172109): 0.016 µg/mL (≈ 0.0202 µM) | MIC (isolate 1172126): 0.06 µg/mL (≈ 0.0759 µM) | MIC (isolate 1630178): 0.25 µg/mL (≈ 0.316 µM) | MIC (isolate 1630190): 1 µg/mL (≈ 1.26 µM) | MIC (isolate 1630410): 0.25 µg/mL (≈ 0.316 µM) | MIC (isolate 1631625): 0.06 µg/mL (≈ 0.0759 µM) | MIC (isolate 1631735): 0.5 µg/mL (≈ 0.632 µM) | MIC (isolate 1631846): 0.125 µg/mL (≈ 0.158 µM) | MIC (isolate 1631847): 2 µg/mL (≈ 2.53 µM) | MIC (isolate 1631848): 4 µg/mL (≈ 5.06 µM) | MIC (isolate 1631849): 0.06 µg/mL (≈ 0.0759 µM) | MIC (isolate 1631949): 0.5 µg/mL (≈ 0.632 µM) | MIC (isolate 1631953): 0.5 µg/mL (≈ 0.632 µM) | MIC (isolate 1631954): 0.25 µg/mL (≈ 0.316 µM) | MIC (isolate 1631955): 0.06 µg/mL (≈ 0.0759 µM) | MIC (isolate 1632073): 0.06 µg/mL (≈ 0.0759 µM) | MIC (isolate 1632166): 0.25 µg/mL (≈ 0.316 µM) | MIC (isolate 1632273): 0.25 µg/mL (≈ 0.316 µM) | MIC (isolate 1633081): 0.25 µg/mL (≈ 0.316 µM) | MIC (isolate 1633082): 0.5 µg/mL (≈ 0.632 µM) | MIC (isolate 1633098): 0.25 µg/mL (≈ 0.316 µM) | MIC (isolate 1633115): 0.25 µg/mL (≈ 0.316 µM) | MIC (isolate 1633117): 1 µg/mL (≈ 1.26 µM) | MIC (isolate 1633121): 0.5 µg/mL (≈ 0.632 µM) | MIC (isolate 1633124): 1 µg/mL (≈ 1.26 µM)

Reference: publication PMC10794144, “A novel antibiotic class targeting the lipopolysaccharide transporter” (Nature, 2024)
